Consider one compound from patent US8652509B2, “Method of wound hemostasis using liquid gallium nitrate” (priority 2009, dated 2014).

For one test, the system named is bleeding time. Nature of the test: Bleeding time test, forearm puncture with #11 scalpel blade (Experiment 4). It is filed as in vivo, human. The text has this: The bleeding time test measures the function of a number of coagulation pathway parameters, including platelet function, extrinsic coagulation pathway and intrinsic coagulation pathway. Here, in order to better understand the various coagulation pathways that might be impacted by gallium nitrate, a bleeding function experiment was done to see if the gallium nitrate effect worked for patients (e.g. Warfarin or Coumadin™ patients) with a suppressed extrinsic coagulation pathway.
In this experiment, a first subject (Subject 1) was treated with Coumadin™ (Warfarin) to achieve a therapeutic dose with an International Normalized Ratio (INR) of 2.5.
Subject 1: To induce bleeding, the first INR 2.5 subject's mid forearm was punctured with a #11 scalpel blade to a depth of 4 mm. This produced prompt flow of blood in the form of a steady slow blood stream down the subject's forearm. This blood flow was gently wiped with gauze every 30 seconds without applying pressure. Under these control (no gallium nitrate) conditions, the bleeding stopped at 122 seconds.
To investigate the effect of gallium nitrate, a second puncture was then made to the arm of the INR 2.5 subject following the same methods as for the first puncture. However in this portion of the experiment, at 5 seconds after puncture, once blood flow had commenced, a gallium nitrate (14%) solution was applied using a soaked cotton-ball. In contrast to the previous no-gallium control, in this gallium nitrate application experiment, blood flow ceased after only 35 seconds. A small pool of blood stayed about incision site. Thus for an INR 2.5 patient, gallium nitrate reduced bleeding time from a control of 122 seconds to a value of only 35 seconds, which is a very substantial decrease.
Subject 2: A mid forearm puncture was made following the same methods as described above. This first puncture was gently wiped with gauze every 30 seconds without applying pressure. In this no gallium nitrate control condition, bleeding stopped at 268 seconds
To investigate the effect of gallium nitrate, a second puncture was then made following the same methods as for the first puncture. At 5 seconds after puncture, once blood flow had commenced, a gallium nitrate (14%) solution was applied using a soaked cotton-ball. By 77 seconds the flow had ceased and a visible clot had started to form.

For the next test, the system named is open wound. The experiment in a line: Topical application of aqueous gallium nitrate to accidental open bleeding wounds (Experiments 1-3). It is filed as in vivo, human. From the text: Unless otherwise specified, all experiments below used an aqueous solution of unbuffered Ga(NO3)3, dissolved in water in the 5% to 15% weight/volume concentration range, specifically as stated. Note that none of these formulations contained citrate.
A first human subject sustained an accidental 1-inch long gash to the index finger, deep enough to extend below the epidermis, but stopping short of the bone. The wound bled profusely and hurt intensely. Subject immediately inserted the finger into a solution of concentrated (non-medical) 14% aqueous gallium nitrate. […] Subject kept the finger in the 14% aqueous gallium nitrate solution for 10 minutes. […] A regular bandage was then applied. Although a wound of this depth would normally require stitches, by the time further medical treatment was sought, stitches were no longer deemed necessary.
A different (second) human subject sustained an accidental 1-inch wide gash to the chin which again penetrated the epidermis, stopped short of the bone, and which bled very profusely. The wound was treated by liberally applying the same type of 14% gallium nitrate solution used in Experiment 1.
A third human subject sustained an accidental 2-inch wide and quite deep gash (penetrating the epidermis, stopping short of the bone) to the top of the forehead, accompanied by profuse bleeding. A less concentrated (7% aqueous gallium nitrate) topical solution was then applied.

“Also recorded” adds a separate entry of the source.

`O=[N+]([O-])[O-].O=[N+]([O-])[O-].O=[N+]([O-])[O-].[Ga+3]` [gallium nitrate]: the visible clot formation result in the test with bleeding time (Coumadin treated subject, 14% solution) is given as “did not form a visible clot”; in the test on bleeding time (non-Coumadin treated subject, 14% solution), “formed a very visible brown clot”. The “bleeding time (blood flow ceased)” value with bleeding time (Subject 1, Coumadin (Warfarin) treated, INR 2.5, 14% solution applied with soaked cotton-ball 5 seconds after puncture) came to 35 s. Moreover, the “bleeding time (flow ceased)” value in the test on bleeding time (Subject 2, non-Coumadin treated, 14% solution applied with soaked cotton-ball 5 seconds after puncture) amounted to 77 s. Moreover, the “reduction of bleeding time compared to no-gallium nitrate control” value with bleeding time (both the Warfarin/Coumadin treated and the non-treated subject, 14% solution) was “approximately 75%”. The wound healing result in the test on open wound (Experiment 1: 14% aqueous gallium nitrate, finger gash, regular bandage afterwards) is recorded as “healed completely within a matter of days”. In addition, the pain result in the test on open wound (Experiment 1: 14% aqueous gallium nitrate, finger kept in solution for 10 minutes) is on record as “near immediate reduction in pain; also recorded: no pain was felt”. In addition, the bleeding stopped entry is on record as “stopped within a few seconds” with open wound (Experiment 1: first human subject, 1-inch gash to index finger, finger inserted into 14% aqueous gallium nitrate, no citrate); “rapidly stopped bleeding” in the test on open wound (Experiment 2: second human subject, 1-inch gash to chin, 14% gallium nitrate solution liberally applied); “stopped bleeding unusually quickly” in the test on open wound (Experiment 3: third human subject, 2-inch deep gash to forehead, 7% aqueous gallium nitrate topical). Further, in the test on open wound (Experiment 2: 14% gallium nitrate solution, chin gash, examined by treating physician shortly thereafter), the resulting clot is given as “unusual strength”. Further, in the test on open wound (summary of the accidental event: aqueous 14% gallium nitrate on a large open wound immediately after wound formation), the clot formation entry is given as “unexpectedly rapid clot formation”.
